The target of one data set is T1, RORγ (Homo sapiens, UniProt P51449).
T1 construct: expressed in transfected cells; host or cells: HEK 293 cells, transiently cotransfected with pGL4.3 luc2P/GAL4UAS/Hygro reporter
T1 sequence (P51449 269-508 limits assumed): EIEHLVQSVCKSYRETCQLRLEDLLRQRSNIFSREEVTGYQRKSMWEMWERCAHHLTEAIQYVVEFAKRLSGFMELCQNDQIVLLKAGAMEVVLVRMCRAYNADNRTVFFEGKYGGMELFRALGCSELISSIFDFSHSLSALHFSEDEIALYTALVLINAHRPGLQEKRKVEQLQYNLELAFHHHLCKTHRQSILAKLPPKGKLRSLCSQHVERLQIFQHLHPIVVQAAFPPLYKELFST
Briefly: RORγ Reporter Gene Assay (RGA), luciferase transactivation in transiently transfected HEK 293 cells. As to conditions: HEK 293 cells cotransfected with pGL4.3 luc2P/GAL4UAS and pBIND Gal4DBD hRORC LBD; 20-24 h incubation. The format is cell-based. The protocol:
Reporter Gene Assay (RGA)
A nuclear receptor transactivation assay is performed to quantitate the ability of test compounds to inhibit RORγ transactivation of a luciferase reporter. A similar assay is described in: Khan et al., Bioorganic & Medicinal Chemistry Letters 23 (2013), 532-536. The system uses transiently transfected HEK 293 cells cotransfected with two plasmids (pGL4.3, luc2P/GAL4UAS/Hygro, and pBIND, Gal4DBD hRORC LBD1-3). The positive control is co-transiently transfected with both plasmids, and the negative control contains the pGL4.3 promoter sequence. Assays are assembled in 384 well plates where transiently transfected cells and test compound at varying concentrations are incubated for 20-24 h. The next day, assays plates are taken out and equilibrated at RT for 20-30 minutes. Bright-Glo™ Luciferase Assay System is used to detect Luciferase production. After addition of Bright GLO detection reagent, the plates are incubated at RT for 20 minutes. The plates are read on an Envision plate reader to measure luminescence signal. The RLU signal is converted to POC relative to control and blank wells.
Compound Dilution Buffer:
Bright Glo Luciferase Assay System: Promega #E2620
Thaw lysis buffer provided in kit, add 100 mL lysis buffer to substrate powder.
For orientation: A reporter such as luciferase makes a cellular process visible.

Data set [1] is described as follows: Human liver microsome (HLM) metabolic stability assay. The format is in vitro ADME. The following applies: human liver microsomes, 1 uM compound, 37° C., 60 min; % hepatic blood flow. The protocol: Assessment of Metabolic Stability
The 5 time point, high-throughput human liver microsome (HLM) metabolic stability assay is designed to determine in vitro compound metabolism. Compounds are incubated with HLMs at a concentration of 1 uM, at 37° C., for a total of 60 min. The percent of compound remaining at 5, 15, 30, and 60 min is used to calculate the t1/2 (min), CLint (mL/min/kg), CLh (mL/min/kg), and % Qh. The assay is based on a 96-well format and can accommodate up to 92 compounds per plate (n=1).
Using the 96-well multi-channel head, the Biomek FX, equipped with a Peltier heating block/shaker, is programmed to accomplish the following steps: • 1. Pipette 175 uL of 1.15 mg/mL microsomes into each of the 96 conical inserts (Analytical Sales and Products, catalog number 96PL05) that fit into the plate of the Peltier heating block/shaker (the incubation plate) • 2. Add 5 uL of compounds from the assay plate to the microsomes and shake the mixture at 600 rpm at 42.1° C. for 10 min (a setting of 42.1° C. on the Peltier is required for the samples to incubate at 37° C.) • 3. After 10 min, prompt the user to add the NADPH plate to the deck and add 20 uL from the NADPH plate to the incubation plate to start the reaction • 4. Add 215 uL of 100%, cold acetonitrile containing an internal standard(s) to a 0 minute, 5 minute, 15 minute, 30 minute, and 60 minute “quench” plate • 5. At 0 min, 5 min, 15 min, 30 min, and 60 min into the incubation, aspirate 12 uL from the incubation mixture and add it to the quench solution to stop the reaction • 6. Add 185 uL HPLC grade water to each well of the 0, 5, 15, 30 and 60 minute quench plates to dilute compounds to the appropriate concentration for the mass spectrometer
After all time points are collected, the quench plates are sealed with 96-well pierceable plate mats or heat sealing foil and centrifuged at 3000 rpm for 15 min to pellet the microsomes.
The plates are analyzed using LC/MS/MS with electron spray ionization (ESI) and the previously determined MRM transitions. The LC method includes the following parameters:
Using an Excel template in Activitybase, the peak areas corresponding to 5, 15, 30 and 60 min are compared to the peak area at 0 min to calculate the percent of remaining compound using the following equation:
Percent compound remaining=(AUC at Time t min/AUC at Time 0 min)×100 where t=0, 5, 15, 30 or 60 min.
Time (min) is plotted against the natural logarithm (Ln) of the percent compound remaining to determine the slope. The slope is used to calculate t1/2 (min) using the equation, t1/2=0.693/slope.
Clint, Intrinsic Clearance
In general terms: Liver microsomes are a subcellular fraction often used to study metabolism.

`Cc1ncnc(C2CC2)c1-c1nc(C)c2nc(NCc3ccc(S(C)(=N)=O)cn3)c(=O)n([C@@H](C)C(F)(F)F)c2n1` (single isomer, unassigned) [Example 106b] showed a half-inhibitory concentration (IC50) against RORγ of 840 nM. In addition, the “HLM (% Qh)” value in data set [1] is 28 % Qh.
Taken in the same sequence, the figures for `CC[C@@H](C)n1c(=O)c(NCc2ccc(S(=O)(=O)CC)cn2)nc2c(CO)nc(-c3c(OC)ncnc3C3CC3)nc21` [Example 1] were 200 nM and less than 24 % Qh.
The matching figures for `CC[C@@H](C)n1c(=O)c(NCc2ccc(S(C)(=O)=O)cn2)nc2c(C)nc(-c3c(OC)ncnc3C3CC3)nc21` [Example 2]: 110 nM and less than 24 % Qh.
The matching figures for `CC[C@@H](C)n1c(=O)c(NCc2ccc(S(=O)(=O)CC)nc2)nc2c(C)nc(-c3c(OC)ncnc3C3CC3)nc21` [Example 3]: 88 nM and less than 24 % Qh.
Turning to `CC[C@@H](C)n1c(=O)c(NCc2ncc(S(=O)(=O)CC)cn2)nc2c(C)nc(-c3c(OC)ncnc3C3CC3)nc21` [Example 4], 180 nM corresponded to half-maximal inhibition against RORγ (IC50). Further, in data set [1], the “HLM (% Qh)” value was less than 24 % Qh.
The matching figures for `COc1ncnc(C2CC2)c1-c1nc(C)c2nc(NCc3ccc(S(C)(=O)=O)cn3)c(=O)n([C@@H](C)C3CC3)c2n1` [Example 5]: 73 nM and 28 % Qh.
Taken in the same sequence, the figures for `CCS(=O)(=O)c1cnc(CNc2nc3c(C)nc(-c4c(C)ncnc4C4CC4)nc3n([C@@H](C)C3CC3)c2=O)nc1` [Example 6] were 87 nM and less than 24 % Qh.
The matching figures for `Cc1ncnc(C2CC2)c1-c1nc(C)c2nc(NCc3ccc(S(C)(=O)=O)nc3)c(=O)n([C@@H](C)C3CC3)c2n1` [Example 7]: 70 nM and 33 % Qh.
Consider `COc1ncnc(C2CC2)c1-c1nc(C)c2nc(NCc3ccc(S(C)(=O)=O)nc3)c(=O)n([C@@H](C)C3CC3)c2n1` [Example 8], for which, on RORγ, the IC50 is 75 nM. Moreover, the “HLM (% Qh)” value in data set [1] is listed as less than 24 % Qh.
The matching figures for `Cc1ncnc(C2CC2)c1-c1nc(C)c2nc(NCc3ccc(S(C)(=O)=O)cn3)c(=O)n([C@@H](C)C3CC3)c2n1` [Example 9]: 70 nM and less than 24 % Qh.
Taken in the same sequence, the figures for `CCS(=O)(=O)c1cnc(CNc2nc3c(C)nc(-c4c(OC)ncnc4C4CC4)nc3n([C@@H](C)C3CC3)c2=O)nc1` [Example 10] were 97 nM and 27 % Qh.
As to `CC[C@H](C)n1c(=O)c(NCc2ccc(S(C)(=O)=O)nc2)nc2c(C)nc(-c3c(OC)ncnc3C3CC3)nc21` [Example 11], on RORγ, the IC50 was found to be 135 nM. For the same molecule, the “HLM (% Qh)” value in data set [1] worked out at 26 % Qh.
The matching figures for `CC[C@H](C)n1c(=O)c(NCc2ccc(S(C)(=O)=O)nc2)nc2c(C)nc(-c3c(C)ncnc3C3CC3)nc21` [Example 12]: 140 nM and less than 24 % Qh.
Taken in the same sequence, the figures for `CC[C@H](C)n1c(=O)c(NCc2ccc(S(C)(=O)=O)cn2)nc2c(C)nc(-c3c(OC)ncnc3C3CC3)nc21` [Example 13] were 99 nM and less than 24 % Qh.
On RORγ, `CC[C@H](C)n1c(=O)c(NCc2ccc(S(C)(=O)=O)cn2)nc2c(C)nc(-c3c(C)ncnc3C3CC3)nc21` [Example 14] displayed an IC50 of 115 nM. The “HLM (% Qh)” value in data set [1] is recorded as less than 24 % Qh.
Taken in the same sequence, the figures for `CC[C@H](C)n1c(=O)c(NCc2ncc(S(=O)(=O)CC)cn2)nc2c(C)nc(-c3c(OC)ncnc3C3CC3)nc21` [Example 15] were 150 nM and less than 24 % Qh.
The matching figures for `CC[C@H](C)n1c(=O)c(NCc2ncc(S(=O)(=O)CC)cn2)nc2c(C)nc(-c3c(C)ncnc3C3CC3)nc21` [Example 16]: 113 nM and less than 24 % Qh.
On RORγ, `COc1ncnc(C2CC2)c1-c1nc(C)c2nc(NCc3ccc(S(C)(=O)=O)cn3)c(=O)n([C@@H](C)C(F)(F)F)c2n1` [Example 17] gave an IC50 of 130 nM. In addition, in data set [1], the “HLM (% Qh)” value came out at 39 % Qh.
Taken in the same sequence, the figures for `Cc1ncnc(C2CC2)c1-c1nc(C)c2nc(NCc3ccc(S(C)(=O)=O)cn3)c(=O)n([C@@H](C)C(F)(F)F)c2n1` [Example 18] were 175 nM and 55 % Qh.
The matching figures for `COc1ncnc(C2CC2)c1-c1nc(C)c2nc(NCc3ccc(S(C)(=O)=O)nc3)c(=O)n([C@@H](C)C(F)(F)F)c2n1` [Example 19]: 165 nM and 62 % Qh.
Taken in the same sequence, the figures for `Cc1ncnc(C2CC2)c1-c1nc(C)c2nc(NCc3ccc(S(C)(=O)=O)nc3)c(=O)n([C@@H](C)C(F)(F)F)c2n1` [Example 20] were 175 nM and 29 % Qh.
For `CC[C@@H](C)n1c(=O)c(NCc2ccc(S(=O)(=O)CC)cn2)nc2c(OC)nc(-c3c(C)ncnc3C3CC3)nc21` [Example 21], the half-inhibitory concentration (IC50) at RORγ was determined as 1900 nM. In addition, the “HLM (% Qh)” value in data set [1] is given as less than 24 % Qh.
Taken in the same sequence, the figures for `CCS(=O)(=O)c1cnc(CNc2nc3c(C)nc(-c4c(OC)ncnc4C4CC4)nc3n([C@@H](C)C(F)(F)F)c2=O)nc1` [Example 22] were 140 nM and less than 24 % Qh.
For `CCS(=O)(=O)c1cnc(CNc2nc3c(C)nc(-c4c(C)ncnc4C4CC4)nc3n([C@@H](C)C(F)(F)F)c2=O)nc1` [Example 23], the IC50 at RORγ amounted to 178 nM. The “HLM (% Qh)” value in data set [1] was less than 24 % Qh.
The matching figures for `CC[C@@H](C)n1c(=O)c(NCC2CCN(S(=O)(=O)CC)CC2)nc2c(C)nc(-c3c(C)ncnc3C3CC3)nc21` [Example 24]: 120 nM and 69 % Qh.
Taken in the same sequence, the figures for `Cc1ncnc(C2CC2)c1-c1nc(C)c2nc(NCc3ccc(S(C)(=O)=O)cn3)c(=O)n([C@@H](C#N)C(C)C)c2n1` [Example 31] were 850 nM and 55 % Qh.
Taken in the same sequence, the figures for `Cc1ncnc(C2CC2)c1-c1nc(C)c2nc(NCc3cnc(S(C)(=O)=O)cn3)c(=O)n([C@@H](C)C(F)(F)F)c2n1` [Example 37] were 455 nM and less than 24 % Qh.
In the case of `CC[C@@H](C)n1c(=O)c(NCc2ccc(S(=O)(=O)CC)cn2)nc2c(COC(C)=O)nc(-c3c(C)ncnc3C3CC3)nc21` [Example 46], half-maximal inhibition against RORγ (IC50) was put at 1050 nM. Also, in data set [1], the “HLM (% Qh)” value is 66 % Qh.
Taken in the same sequence, the figures for `CC[C@@H](C)n1c(=O)c(NCc2ccc(S(C)(=O)=O)cn2)nc2c(COC(C)=O)nc(-c3c(C)ncnc3C3CC3)nc21` [Example 47] were 1050 nM and 56 % Qh.
Taken in the same sequence, the figures for `CCS(=O)(=O)c1ccc(CNc2nc3c(C)nc(-c4c(C)ncnc4C4CC4)nc3n([C@@H](C)CF)c2=O)nc1` [Example 48] were 1200 nM and less than 24 % Qh.
The matching figures for `Cc1ncnc(C2CC2)c1-c1nc(C)c2nc(NCc3ccc(S(C)(=O)=O)cn3)c(=O)n([C@@H](C)CF)c2n1` [Example 49]: 4200 nM and less than 24 % Qh.

The term IC50 denotes the midpoint of a concentration-inhibition curve. Read a high IC50 as a need for much substance.

These data come from US10450314B2, “Pteridine derivatives as modulators of ROR gamma” (Boehringer Ingelheim International GmbH, priority 2015, dated 2019).
